Data taken from PubChem BioAssay (NCI).
Several values for one entry are separate records, joined by “and”; a condition that tells them apart may be missing. Equal entries are not always repeated.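 Results reflect a 48-hour exposure of cells in 96-well plates to compound at five concentrations. At the GI50, growth is halved. TGI: concentration producing complete growth inhibition.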

Columns and labels:
Experiment in all cases: DTP human tumour cell line panel, 48 h
[1] = system: SR leukemia
[2] = system: SK-MEL-2 melanoma
[3] = system: RXF 393 renal
[4] = system: HS 578T breast
[5] = system: SK-OV-3 ovarian
[6] = system: MDA-MB-435
[7] = system: EKVX NSCLC
[8] = system: DU-145 prostate
[9] = system: SF-268 CNS
[10] = system: UACC-62 melanoma

| Compound | GI50 [1] [µM] | TGI [1] [µM] | GI50 [2] [µM] | TGI [2] | GI50 [3] [µM] | TGI [3] | GI50 [4] [µM] | TGI [4] [µM] | GI50 [5] [µM] | TGI [5] | GI50 [6] [µM] | TGI [6] [µM] | GI50 [7] [µM] | TGI [7] [µM] | GI50 [8] [µM] | TGI [8] [µM] | GI50 [9] [µM] | TGI [9] [µM] | GI50 [10] [µM] | TGI [10] |
| --- | --- | --- | --- | --- | --- | --- | --- | --- | --- | --- | --- | --- | --- | --- | --- | --- | --- | --- | --- | --- |
| CN1CCN(C2=NC(=O)/C(=C\c3ccc(N(C)C)cc3)S2)CC1 | 57.4 | > 100 | > 100 | > 100 µM | 45.4 | > 100 µM | > 100 | > 100 | > 100 | > 100 µM | > 100 | > 100 | > 100 | > 100 | > 100 | > 100 | > 100 | > 100 | 91.7 | > 100 µM |
| CC(C)Cc1cnc(CC(C)C)c(=O)[nH]1 | – | > 100 | – | > 100 µM | – | > 100 µM | – | > 100 | – | > 100 µM | – | > 100 | – | > 100 | – | > 100 | – | > 100 | – | > 100 µM |
| CN(C)CCC(=O)Nc1ccc(-n2cc(-c3cccc(NC(=S)Nc4cccc(-c5cn(-c6ccc(NC(=O)CCN(C)C)cc6)nn5)c4)c3)nn2)cc1 | 26.2 | > 100 | 39.5 | > 100 µM | > 100 | > 100 µM | 33.4 | > 100 | > 100 | > 100 µM | 26.7 | > 100 | 37.2 | > 100 | > 100 | > 100 | 24.5 | 75.6 | 33.3 | 98.8 µM |
| O=C(Nc1sc2c(c1C(=O)O)CCCC2)c1ccco1 | 46.2 | > 50 | > 50 | > 50 µM | > 50 | > 50 µM | > 50 | > 50 | > 50 | > 50 µM | > 50 | > 50 | 36.3 | > 50 | > 50 | > 50 | 25.7 | > 50 | > 50 | > 50 µM |
| O=C1C(=O)c2c(nc3ccc(C(F)(F)F)cn23)-c2ccccc21 | 0.225 | > 100 | 0.209 | 0.434 µM | 0.254 | 0.616 µM | 0.206 | 0.523 | 0.551 | 1.12 µM | 0.179 | 0.324 | 0.178 | 0.396 | 0.185 | 0.345 | 0.224 | 0.609 | 0.179 | 0.343 µM |
| Oc1ccc(Cl)cc1C=Nc1cnc2ccccc2c1 | – | > 100 | – | > 80.6 µM | – | > 100 µM | – | > 100 | – | > 100 µM | – | > 100 | – | > 86 | – | > 100 | – | > 100 | – | > 100 µM |
| C[C@@]1(F)[C@H](O)[C@@H](CO)O[C@H]1n1ccc(=O)[nH]c1=O | > 100 | > 100 | > 100 | > 100 µM | > 100 | > 100 µM | > 100 | > 100 | > 100 | > 100 µM | > 100 | > 100 | > 100 | > 100 | > 100 | > 100 | > 100 | > 100 | > 100 | > 100 µM |
| C[C@@H]1C[C@@H]([C@H](O)CC2CC(=O)NC(=O)C2)C(=O)[C@@H](C)C1 | 0.28 | – | 0.164 | 1.07 µM and 3.27 µM | 0.135 | 1.48 µM and 0.462 µM | 0.488 | – | 0.275 | 5.31 µM and 12.2 µM | 0.233 | 4.09 | 0.341 | 4.45 | 0.247 | – | 0.264 | 1.94 | 0.321 | 8.14 µM and 10.5 µM |
| Cc1n[nH]c2ccccc2c1=O | – | > 100 | – | > 100 µM | – | > 100 µM | – | > 100 | – | > 100 µM | – | > 100 | – | > 100 | – | > 100 | – | > 100 | – | > 100 µM |
| [N-]=[N+]=CC(=O)CCC(N)C(=O)O (stereo not given) | – | > 231 | 24.6 | 245 µM | 24.6 | 210 µM | 42.2 | > 250 | – | 34.3 µM | 7.2 | > 250 | 3.47 | > 141 | 5.58 | > 250 | 1.65 | 190 | 3.82 | > 147 µM |
| Nc1cc2c3c(cccc3c1)C(=O)N(CCN1CCCC1)C2=O | 0.979 | > 22.4 | 4.96 | 19.2 µM | 6.43 | 42.3 µM | 4.83 | 35 | 2.16 | 22.7 µM | 4.06 | 14.8 | 3.69 | 54.2 | 2.01 | 37.4 | 4.62 | 30.5 | 2.47 | 9.99 µM |
| CC(C)(C)C[C@H]1N[C@@H](C(=O)NC2CCC(O)CC2)[C@H](c2cccc(Cl)c2F)[C@@]12C(=O)Nc1cc(Cl)ccc12 (stereo not given in full) | 0.189 | 5.45 | 4.93 | 19.7 µM | 3.38 | 17.2 µM | 6.51 | 56.8 | 11.2 | 23.8 µM | 4.8 | 16.6 | 3.15 | 14.2 | 11.8 | 24.3 | 12 | 25.8 | 0.235 | 2.46 µM |
| COC1=CC(=O)O/C1=C(\OC)C1OC1c1ccccc1 (stereo not given) | – | 93.8 | – | > 100 µM | – | > 100 µM | – | > 100 | – | > 100 µM | – | > 100 | – | > 100 | – | > 100 | – | > 100 | – | > 100 µM |
| COc1cc(C2CC(c3ccc(Nc4nc(NCCO)nc(NCCO)n4)cc3)=NN2c2cc(Cl)cc(Cl)c2)cc(OC)c1OC (stereo not given) | 1.29 | 4.11 | 15.5 | 28.9 µM | 0.568 | 2.34 µM | 0.644 | 3.34 | 11.1 | 23.1 µM | 1.55 | 3.24 | 2.03 | 6.17 | 1.84 | 4.11 | 1.52 | 4.09 | 1.58 | 3.04 µM |
| CC1CCC2C(C)C(=O)OC2C2(C)C(=O)C=CC12 (stereo not given) | – | > 10 | – | > 10 µM | – | > 10 µM | – | > 10 | – | > 10 µM | – | > 10 | – | > 10 | – | > 10 | – | > 10 | – | > 10 µM |
| CC1(C)CC(C)(C)c2cc(NC(=S)Nc3ccc([N+](=O)[O-])cc3)ccc2S1 | 12.9 | > 88.2 | 10.5 | 23.1 µM | 17.9 | 51.8 µM | 24.2 | 58.3 | 16.5 | 54.8 µM | 11.8 | 30.5 | 12.7 | 29.7 | 13.1 | 34.6 | 26.5 | > 53.7 | 10.9 | 25 µM |
| Cc1cccc(C2NC(=O)c3ccccc3N2)c1 (stereo not given) | – | > 100 | – | > 42.8 µM | – | > 23.7 µM | – | 65.1 | – | > 44.6 µM | – | 2.77 | – | > 100 | – | > 100 | – | > 100 | – | > 100 µM |
| N=C1CCCC1C(=S)SCCC(N)=O (stereo not given) | – | > 100 | – | > 100 µM | – | > 100 µM | – | > 100 | – | > 100 µM | – | > 100 | – | > 100 | – | > 100 | – | > 100 | – | > 100 µM |
| CCCCNC(c1ccc(Cl)cc1)C(O)c1ccc(Cl)cc1 (stereo not given) | 1.07 | 3.75 | 1.81 | 3.68 µM | 1.49 | 3.65 µM | 4.98 | 26.9 | 5.72 | 20 µM | 1.61 | 3.57 | 2.76 | 14.7 | 3.1 | 10.4 | 3.21 | 16.3 | 1.49 | 3.18 µM |
| C=C1C(=O)O[C@@H]2/C=C(/C)[C@@H](OC(C)=O)C/C=C(\C)C(O)[C@@H](OC(=O)/C(C)=C\C)C12 (stereo not given in full) | – | 55.6 | – | 76.8 µM | – | 79.4 µM | – | > 100 | – | > 100 µM | – | 57.5 | – | > 100 | – | > 100 | – | > 100 | – | 88.4 µM |
| O=C(Nc1n[nH]c2cc(-c3cc(F)ccc3F)ccc12)C1CC1 | 6.38 | > 25 | 12.2 | > 25 µM | 17.3 | > 25 µM | 13.1 | > 25 | 11.1 | > 25 µM | 4.56 | 21.5 | > 22.3 | > 25 | 17.7 | > 25 | 19.5 | > 25 | 19.5 | > 25 µM |
| COc1cc2c(cc1OCCNC(=O)/C=C1\C[C@H]3C=Nc4cc(OCc5ccccc5)c(OC)cc4C(=O)N3C1)N=C[C@@H]1CCCN1C2=O | 1.46 | 4.56 | 1.58 | 3.56 µM | 1.98 | 4.98 µM | 5.7 | 25.2 | 25.1 | 73.1 µM | 2.97 | 9.79 | 36.8 | 81.6 | 19.4 | 37.3 | 2.18 | 7.03 | 2.65 | 9.92 µM |
| COC1=CC(c2ccc[nH]2)=N/C1=C\c1[nH]c(C)c(C(=O)CCCCCCCCC(=O)O[C@H]2CC[C@H]3C4CCc5cc(O)ccc5C4CC[C@]23C)c1C (stereo not given in full) | 0.209 | > 20.2 | 0.247 | 1.95 µM | 1.21 | 24.5 µM | 0.411 | > 33.9 | 5.02 | > 50 µM | 0.272 | > 24.2 | 0.461 | > 50 | 0.387 | > 50 | 0.429 | > 50 | 0.182 | 1.09 µM |
| CCCCCCCC(=O)OCC/C=C/C1OC1C1OC(=O)/C=C\C=C\C(=O)N(C(C)=O)C(=O)/C=C(/C)CCC2OC2C1OC(=O)NC(C)=O (stereo not given) | 4.48 | > 25 | 6.46 | 20.4 µM | 4.34 | 9.45 µM | 5.22 | 15.8 | > 25 | > 25 µM | 5.85 | 24.8 | > 25 | > 25 | 4.45 | 16.2 | 4.6 | 12.1 | 6.27 | > 25 µM |
| Cc1ccc(/C(=N/Nc2ccc([N+](=O)[O-])cc2)Sc2cc(Cl)c(C)cc2S(N)(=O)=O)cc1 | 0.945 | 3.55 | 4.9 | 20 µM | 2.01 | 6.52 µM | 2.45 | > 23.5 | 1.94 | 4.34 µM | 1.73 | 3.89 | 3.14 | 9.12 | 1.75 | 4.1 | 1.91 | 7.37 | 1.73 | 3.64 µM |
| COc1cc(O)ccc1C(=S)SC | – | > 100 | – | > 100 µM | – | > 100 µM | – | 98.5 | – | > 100 µM | – | > 100 | – | 46.3 | – | > 100 | – | > 100 | – | > 100 µM |
| CSc1nc(Nc2cccc(NC(=O)CCl)c2)c(C#N)c(-c2cccc([N+](=O)[O-])c2)n1 | 0.387 | > 100 | 2.05 | 5.22 µM | 1.54 | 3.22 µM | 3.21 | 30.7 | 4.36 | 17.3 µM | 2.15 | 5.16 | 3.36 | 13.2 | 2.25 | 4.57 | 2.24 | 5.72 | 1.35 | 3.17 µM |
